Laboratory results: article PMC11424460, “Inhibitory effects of calcium channel blockers nisoldipine and nimodipine on ivacaftor metabolism and their underlying mechanism” (Frontiers in Pharmacology, 2024)

Tested on: ivacaftor metabolism in rat liver microsomes (RLM)
Assay: Screening of 79 drugs (100 μM) for inhibition of ivacaftor metabolism in RLM incubation
Format: in vitro ADME
Settings: each drug 100 μM, 0.3 mg/mL RLM
Protocol: The supernatants were centrifuged at 100,000 × g for 1 h, and the pellets were resuspended with cold […] PBS. Protein concentrations were determined by Bradford Protein Assay Kit (Thermo Scientific, Waltham, MA, United States).
This system was made up of 200 μL of incubation solution consisting of 0.3 mg/mL RLM or 0.4 mg/mL HLM, 1.0 mM NADPH, pH 7.4 PBS and ivacaftor. […] The solution should be pre-incubated at 37°C for 5 min before adding NADPH. Following the addition of NADPH, the mixture should be incubated for 40 min. The reaction should then be stopped at −80°C. After the enzyme reaction was completed, 20 μL of 500 ng/mL IS solution and 400 μL acetonitrile (protein precipitating agent) were added to the mixture. The mixture was vortexed for 2 min and then centrifuged at 13,000 rpm for 10 min. After centrifugation, 100 μL of the supernatant was quantified using UPLC-MS/MS.
Each drug was used at a concentration of 100 μM as the inhibitor. The culture system was 200 μL and included 0.3 mg/mL RLM, 1.0 mM NADPH, PBS, ivacaftor, and inhibitor. The reaction procedure was the same as the enzyme reaction mentioned above Section 2.2.

| Structure (SMILES) | Metabolic rate (Mean ± SD, % of control) |
| --- | --- |
| COc1cc(/C=C/C(=O)CC(=O)/C=C/c2ccc(O)c(OC)c2)ccc1O [Curcumin] | 8.19 ± 0.34 % of control |
| COc1ccc2cc1Oc1ccc(cc1)C[C@H]1c3cc(c(OC)cc3CCN1C)Oc1c(O)c(OC)cc3c1[C@H](C2)N(C)CC3 [Fangchinoline] | 29.41 ± 4.61 % of control |
| COC(=O)C1=C(C)NC(C)=C(C(=O)OC(C)(C)CN(C)CCC(c2ccccc2)c2ccccc2)C1c1cccc([N+](=O)[O-])c1 (stereo not shown) [Lercanidipine] | 26.70 ± 7.18 % of control |
| CC(C)=CC[C@@H](O)C1=CC(=O)c2c(O)ccc(O)c2C1=O [Shikonin] | 41.65 ± 3.13 % of control |
| CO[C@H]1O[C@@H]2O[C@@]3(C)CC[C@H]4[C@H](C)CC[C@@H]([C@H]1C)[C@@]24OO3 [Artemether] | 41.88 ± 3.81 % of control |
| [H]/N=C(/N)c1ccc(NCc2nc3cc(C(=O)N(CCC(=O)O)c4ccccn4)ccc3n2C)cc1 [Dabigatran] | 104.42 ± 27.66 % of control |
| COc1ccccc1OCCNCC(O)COc1cccc2[nH]c3ccccc3c12 (stereo not shown) [Carvedilol] | 12.87 ± 0.57 % of control |
| COc1ccccc1Oc1c(NS(=O)(=O)c2ccc(C(C)(C)C)cc2)nc(-c2ncccn2)nc1OCCO [Bosentan] | 131.49 ± 2.21 % of control |
| O=c1cc(-c2ccc(O)cc2)oc2cc(O)cc(O)c12 [Apigenin] | 58.35 ± 2.14 % of control |
| CCCCc1nc(Cl)c(CO)n1Cc1ccc(-c2ccccc2-c2nn[nH]n2)cc1 [Losartan] | 35.88 ± 1.19 % of control |
| COc1cc(-c2oc3cc(O)cc(O)c3c(=O)c2O)ccc1O [Isorhamnetin] | 65.68 ± 3.49 % of control |
| CC1(C)O[C@H]2CC(=O)OC[C@]23[C@H]2CC[C@@]4(C)[C@H](c5ccoc5)OC(=O)[C@H]5O[C@]54[C@]2(C)C(=O)C[C@@H]13 [Limonin] | 19.90 ± 0.36 % of control |
| CC(=O)CC(c1ccccc1)c1c(O)c2ccccc2oc1=O (stereo not shown) [Warfarin] | 95.32 ± 3.41 % of control |
| Cc1ccc(Sc2ccccc2N2CCNCC2)c(C)c1 [Vortioxetine] | 3.17 ± 0.50 % of control |
| CCCc1nc2c(C)cc(-c3nc4ccccc4n3C)cc2n1Cc1ccc(-c2ccccc2C(=O)O)cc1 [Telmisartan] | 14.98 ± 1.00 % of control |
| O=C(O)c1cc(O)c(O)c(O)c1 [Gallic acid] | 95.98 ± 6.77 % of control |
| COc1ccc([C@@H]2Sc3ccccc3N(CCN(C)C)C(=O)[C@@H]2OC(C)=O)cc1 [Dilthiazem] | 26.04 ± 1.00 % of control |
| O=c1c(-c2ccc(O)cc2)coc2cc(O)ccc12 [Daidzein] | 105.78 ± 2.90 % of control |
| O=c1cc(-c2ccccc2)oc2cc(O)c(O)c(O)c12 [Baicalein] | 15.24 ± 0.00 % of control |
| O=C(O)/C=C/c1ccc(O)c(O)c1 [Caffeic acid] | 106.41 ± 1.94 % of control |

| Structure (SMILES) | Metabolic rate (Mean ± SD, % of control) |
| --- | --- |
| O=c1c(O)c(-c2ccc(O)c(O)c2)oc2cc(O)cc(O)c12 [Quercetin] | 57.86 ± 5.58 % of control |
| COc1ccc(-n2nc(C(N)=O)c3c2C(=O)N(c2ccc(N4CCCCC4=O)cc2)CC3)cc1 [Apixaban] | 83.91 ± 3.91 % of control |
| CCC1=C(C)CN(C(=O)NCCc2ccc(S(=O)(=O)NC(=O)N[C@H]3CC[C@H](C)CC3)cc2)C1=O [Glimepiride] | 36.97 ± 1.02 % of control |
| O=C1C[C@@H](c2ccc(O)cc2)Oc2cc(O)cc(O)c21 [Naringenin] | 42.57 ± 2.14 % of control |
| CC(C)n1c(=O)cc(N[C@@H](C)c2ccccc2)[nH]c1=O [mavacamten] | 94.17 ± 0.21 % of control |
| CN(C)[C@@H](CCOc1cccc2ccccc12)c1ccccc1 [Dapoxetine] | 19.76 ± 0.64 % of control |
| O=C1CCC[C@@H]2[C@H]3CCCN4CCC[C@H](CN12)[C@@H]34 [Sophoridine] | 109.11 ± 5.90 % of control |
| C[N+](C)(C)CC(=O)O [Betaine] | 100.10 ± 4.97 % of control |
| O=C(/C=C/C=C/c1ccc2c(c1)OCO2)N1CCCCC1 [Piperine] | 203.66 ± 9.93 % of control |
| O=C1CCC[C@@H]2[C@H]3CCCN4CCC[C@@H](CN12)[C@@H]34 [Matrine] | 80.23 ± 12.45 % of control |
| COc1ccc2cc1Oc1ccc(cc1)C[C@H]1c3cc(c(OC)cc3CCN1C)Oc1c(OC)c(OC)cc3c1[C@H](C2)N(C)CC3 [Tetrandrine] | 71.96 ± 16.27 % of control |
| O=C1C=CC[C@@H]2[C@H]3CCCN4CCC[C@@H](CN12)[C@@H]34 [Sophocarpine] | 93.46 ± 2.14 % of control |
| O=c1c(-c2ccc(O)cc2)coc2cc(O)cc(O)c12 [Genistein] | 50.39 ± 12.01 % of control |
| CCc1cccc2c3c([nH]c12)C(CC)(CC(=O)O)OCC3 (stereo not shown) [Etodolac] | 98.19 ± 1.07 % of control |
| Cc1cccc(C)c1OCC(C)N (stereo not shown) [Mexiletine] | 95.32 ± 2.42 % of control |
| Oc1cc(O)c2c(c1)O[C@H](c1ccc(O)c(O)c1)[C@H](O)C2 [Epicatechin] | 100.31 ± 2.66 % of control |
| COc1ccc([C@@H]2CC(=O)c3c(O)cc(O[C@@H]4O[C@H](CO[C@@H]5O[C@@H](C)[C@H](O)[C@@H](O)[C@H]5O)[C@@H](O)[C@H](O)[C@H]4O)cc3O2)cc1O [Hesperiden] | 104.17 ± 3.09 % of control |
| COc1cc2cc(Oc3ccc4ccc(=O)oc4c3)c(=O)oc2cc1O [Daphnoretin] | 69.60 ± 0.85 % of control |
| COc1cc(C2Oc3cc([C@H]4Oc5cc(O)cc(O)c5C(=O)[C@@H]4O)ccc3OC2CO)ccc1O (stereo partly shown) [Silibinin] | 54.73 ± 1.11 % of control |
| O=c1cc(-c2ccc(O)c(O)c2)oc2cc(O)cc(O)c12 [Luteolin] | 95.78 ± 7.92 % of control |

| Structure (SMILES) | Metabolic rate (Mean ± SD, % of control) |
| --- | --- |
| O=c1c(O)c(-c2cc(O)c(O)c(O)c2)oc2cc(O)cc(O)c12 [Myricetin] | 2.38 ± 0.15 % of control |
| O=C(NC[C@H]1CN(c2ccc(N3CCOCC3=O)cc2)C(=O)O1)c1ccc(Cl)s1 [Rivaroxaban] | 85.62 ± 0.92 % of control |
| O=C(O)[C@H]1O[C@@H](Oc2cc3oc(-c4ccccc4)cc(=O)c3c(O)c2O)[C@H](O)[C@@H](O)[C@@H]1O [Baicalin] | 50.95 ± 0.08 % of control |
| COc1ccc2cc3[n+](cc2c1OC)CCc1cc2c(cc1-3)OCO2 [Berberine] | 109.72 ± 0.72 % of control |
| COc1ccc([C@@H]2CC(=O)c3c(O)cc(O)cc3O2)cc1O [Hesperetin] | 31.12 ± 2.75 % of control |
| CC[C@H](C)C(=O)O[C@H]1C[C@@H](C)C=C2C=C[C@H](C)[C@H](CC[C@@H]3C[C@@H](O)CC(=O)O3)[C@H]21 [Lovastatin] | 17.75 ± 0.36 % of control |
| Oc1ccc(/C=C/c2cc(O)cc(O)c2)cc1 [Resveratrol] | 18.69 ± 0.46 % of control |
| CCOC(=O)C1=C(C)NC(C)=C(C(=O)OC)C1c1cccc([N+](=O)[O-])c1 (stereo not shown) [Nitrendipine] | 27.00 ± 0.21 % of control |
| N[C@@H](CC(=O)N1CCn2c(nnc2C(F)(F)F)C1)Cc1cc(F)c(F)cc1F [Sitagliptin] | 97.11 ± 2.13 % of control |
| O=C1CCc2cc(OCCCCc3nnnn3C3CCCCC3)ccc2N1 [Cilostazol] | 13.12 ± 0.36 % of control |
| COC(=O)Nc1c(N)nc(-c2nn(Cc3ccccc3F)c3ncc(F)cc23)nc1N [Vericiguat] | 76.32 ± 1.42 % of control |
| C[C@@H]1O[C@@H](O[C@H]2[C@H](Oc3cc(O)c4c(c3)O[C@H](c3ccc(O)cc3)CC4=O)O[C@H](CO)[C@@H](O)[C@@H]2O)[C@H](O)[C@H](O)[C@H]1O [Naringin] | 100.87 ± 17.42 % of control |
| COc1c(O)cc2c(c1O)[C@@H]1O[C@H](CO)[C@@H](O)[C@H](O)[C@H]1OC2=O [Bergenin] | 142.63 ± 33.46 % of control |
| O=c1c(O)c(-c2ccc(O)c(O)c2)oc2cc(O)ccc12 [Fisetin] | 44.37 ± 1.28 % of control |
| C=C1CC[C@@H]2[C@](C)(CO)[C@H](O)CC[C@@]2(C)[C@@H]1C/C=C1/C(=O)OC[C@H]1O [Andrographolide] | 81.58 ± 1.22 % of control |
| CSCCNc1nc(SCCC(F)(F)F)nc2c1ncn2[C@@H]1O[C@H](COP(=O)(O)OP(=O)(O)C(Cl)(Cl)P(=O)(O)O)[C@@H](O)[C@H]1O [cangrelor] | 105.13 ± 0.21 % of control |
| C[C@@H]1O[C@@H](OC[C@H]2O[C@@H](Oc3c(-c4ccc(O)c(O)c4)oc4cc(O)cc(O)c4c3=O)[C@H](O)[C@@H](O)[C@@H]2O)[C@H](O)[C@H](O)[C@H]1O [Rutin] | 91.63 ± 0.31 % of control |
| O=c1c(O)c(-c2ccc(O)cc2)oc2cc(O)cc(O)c12 [Kaempferol] | 66.02 ± 4.43 % of control |
